Values of other authors, collected in patent US20240298642A1, “Herbicidal Compositions Comprising Fluazifop And Triclopyr” (Bayer CropScience LP, priority 2023, published 2024).

Details: neat solvent

| flash point [°C] | SMILES |
| --- | --- |
| 81 | CCCCCCCCO [Composition 1-octanol, 1-octanol] |
| 65 | CCCCCCO [Composition 1-hexanol, 1-hexanol] |
